Active and inactive are the calls of the source. No cut-off for these calls is given here.
tested on: HSC-2; assay: Antiproliferative activity against human HSC2 cells assessed as reduction in cell viability at 100 uM measured after 48 hrs by MTT assay relative to control; assay type: functional

Nc1ncnc2c1ncn2[C@@H]1O[C@H](CN(CC[C@H](N)C(=O)O)Cc2ccc3ccccc3c2)[C@@H](O)[C@H]1O showed an Activity of 27%.

tested on: HSC-2; assay: Antiproliferative activity against human HSC2 cells assessed as reduction in cell viability at 100 uM measured after 72 hrs by MTT assay relative to control; assay type: functional

For Nc1ncnc2c1ncn2[C@@H]1O[C@H](CN(CC[C@H](N)C(=O)O)Cc2ccc3ccccc3c2)[C@@H](O)[C@H]1O, the Activity was 44%.

tested on: HSC-2; assay: Antiproliferative activity against human HSC2 cells assessed as reduction in cell viability at 50 uM measured after 48 hrs by MTT assay relative to control; assay type: functional

Nc1ncnc2c1ncn2[C@@H]1O[C@H](CN(CC[C@H](N)C(=O)O)Cc2ccc3ccccc3c2)[C@@H](O)[C@H]1O showed an Activity of 21%.

target: T1, Nicotinamide N-methyltransferase (Homo sapiens, UniProt P40261); assay: Inhibition of wild-type human full length NNMT expressed in Escherichia coli BL21(DE3) cells assessed as reduction in 1-methyl-nicotinamide formation pre-incubated for 10 mins followed by AdoMet and nicotinamide addition measured after 30 mins by UHP-HILIC/Q-TOF-MS analysis
T1 sequence (P40261 whole entry): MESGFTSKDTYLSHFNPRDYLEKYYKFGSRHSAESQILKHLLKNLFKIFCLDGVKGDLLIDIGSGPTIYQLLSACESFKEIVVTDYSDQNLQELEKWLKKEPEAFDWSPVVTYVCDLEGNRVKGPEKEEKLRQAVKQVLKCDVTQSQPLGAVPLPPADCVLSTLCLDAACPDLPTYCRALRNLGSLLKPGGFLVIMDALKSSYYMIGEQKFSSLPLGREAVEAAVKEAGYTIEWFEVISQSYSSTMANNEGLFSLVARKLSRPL

NC(=O)c1cccc(CN(CCCCC(=O)O)C[C@H]2O[C@@H](n3cnc4c(N)ncnc43)[C@H](O)[C@@H]2O)c1 and NC(=O)c1cccc(CN(CCCC(=O)O)C[C@H]2O[C@@H](n3cnc4c(N)ncnc43)[C@H](O)[C@@H]2O)c1 cannot be ordered by IC50: over 250 µM for the first, over 250 µM for the second.

Compared with Nc1ncnc2c1ncn2[C@@H]1O[C@H](C[C@@H](N)CC[C@H](N)C(=O)O)[C@@H](O)[C@H]1O [SINEFUNGIN], Nc1ncnc2c1ncn2[C@@H]1O[C@H](CSCC[C@H](N)C(=O)O)[C@@H](O)[C@H]1O [S-ADENOSYLHOMOCYSTEINE] is 2.8-fold higher in IC50: 12.5 µM for the first, 35.3 µM for the second.

Nc1ncnc2c1ncn2[C@@H]1O[C@H](CN(CCCC(=O)O)Cc2ccc3ccccc3c2)[C@@H](O)[C@H]1O and Nc1ncnc2c1ncn2[C@@H]1O[C@H](CN(CCCCC(=O)O)Cc2ccc3ccccc3c2)[C@@H](O)[C@H]1O cannot be ordered by IC50: over 250 µM for the first, over 250 µM for the second.

Nc1ncnc2c1ncn2[C@@H]1O[C@H](CN(CCCC(=O)O)Cc2cccc(C(=O)O)c2)[C@@H](O)[C@H]1O and Nc1ncnc2c1ncn2[C@@H]1O[C@H](CN(CCCCC(=O)O)Cc2cccc(C(=O)O)c2)[C@@H](O)[C@H]1O cannot be ordered by IC50: over 250 µM for the first, over 250 µM for the second.

Going from NC(=O)CCCN(Cc1ccc2ccccc2c1)C[C@H]1O[C@@H](n2cnc3c(N)ncnc32)[C@H](O)[C@@H]1O to Nc1ncnc2c1ncn2[C@@H]1O[C@H](CN(CCC[C@H](N)C(=O)O)Cc2ccc3ccccc3c2)[C@@H](O)[C@H]1O, the IC50 rises from 111 µM to over 250 µM.

NC(=O)CCCN(Cc1cccc(C(=O)O)c1)C[C@H]1O[C@@H](n2cnc3c(N)ncnc32)[C@H](O)[C@@H]1O and NC(=O)CCCCN(Cc1cccc(C(=O)O)c1)C[C@H]1O[C@@H](n2cnc3c(N)ncnc32)[C@H](O)[C@@H]1O cannot be ordered by IC50: over 250 µM for the first, over 250 µM for the second.

CC(C)N(Cc1cccc(C(=O)O)c1)C[C@H]1O[C@@H](n2cnc3c(N)ncnc32)[C@H](O)[C@@H]1O and CC(C)N(Cc1cccc(C(N)=O)c1)C[C@H]1O[C@@H](n2cnc3c(N)ncnc32)[C@H](O)[C@@H]1O cannot be ordered by IC50: over 250 µM for the first, over 250 µM for the second.

NC(=O)CCCCN(Cc1cccc(C(N)=O)c1)C[C@H]1O[C@@H](n2cnc3c(N)ncnc32)[C@H](O)[C@@H]1O and NC(=O)CCCN(Cc1cccc(C(N)=O)c1)C[C@H]1O[C@@H](n2cnc3c(N)ncnc32)[C@H](O)[C@@H]1O cannot be ordered by IC50: over 250 µM for the first, over 250 µM for the second.

Going from CC(C)N(Cc1ccc2ccccc2c1)C[C@H]1O[C@@H](n2cnc3c(N)ncnc32)[C@H](O)[C@@H]1O to COC(=O)c1cccc(CN(C[C@H]2O[C@@H](n3cnc4c(N)ncnc43)[C@H](O)[C@@H]2O)C(C)C)c1, the IC50 rises from 130 µM to over 250 µM.

COC(=O)c1cccc(CN(CCCCC(=O)O)C[C@H]2O[C@@H](n3cnc4c(N)ncnc43)[C@H](O)[C@@H]2O)c1 and COC(=O)c1cccc(CN(CCCC(=O)O)C[C@H]2O[C@@H](n3cnc4c(N)ncnc43)[C@H](O)[C@@H]2O)c1 cannot be ordered by IC50: over 250 µM for the first, over 250 µM for the second.

COC(=O)c1cccc(CN(CCCC(N)=O)C[C@H]2O[C@@H](n3cnc4c(N)ncnc43)[C@H](O)[C@@H]2O)c1 and COC(=O)c1cccc(CN(CCCCC(N)=O)C[C@H]2O[C@@H](n3cnc4c(N)ncnc43)[C@H](O)[C@@H]2O)c1 cannot be ordered by IC50: over 250 µM for the first, over 250 µM for the second.

For NC(=O)c1cccc(CCN(CCC[C@H](N)C(=O)O)C[C@H]2O[C@@H](n3cnc4c(N)ncnc43)[C@H](O)[C@@H]2O)c1, the IC50 was 4.36 µM.

tested on: HSC-2; assay: Antiproliferative activity against human HSC2 cells assessed as reduction in cell viability at 10 uM measured after 48 hrs by MTT assay relative to control; assay type: functional

Nc1ncnc2c1ncn2[C@@H]1O[C@H](CN(CC[C@H](N)C(=O)O)Cc2ccc3ccccc3c2)[C@@H](O)[C@H]1O showed an Activity of 20%.

tested on: HSC-2; assay: Antiproliferative activity against human HSC2 cells assessed as reduction in cell viability at 1 to 100 uM measured up to 72 hrs by MTT assay; assay type: functional, cell-based

In the case of Nc1ncnc2c1ncn2[C@@H]1O[C@H](CN(CCC[C@H](N)C(=O)O)Cc2ccc3ccccc3c2)[C@@H](O)[C@H]1O, the Activity is reported as “inactive”.
In the case of NC(=O)c1cccc(CN(CC[C@H](N)C(=O)O)C[C@H]2O[C@@H](n3cnc4c(N)ncnc43)[C@H](O)[C@@H]2O)c1, the Activity is reported as “inactive”.
With NC(=O)c1cccc(CCN(CCC[C@H](N)C(=O)O)C[C@H]2O[C@@H](n3cnc4c(N)ncnc43)[C@H](O)[C@@H]2O)c1 the Activity was “inactive”.

Reference: ChEMBL document CHEMBL4304774, “Bisubstrate Inhibitors of Nicotinamide N-Methyltransferase (NNMT) with Enhanced Activity” (J Med Chem, 2019)
